Where “and” joins values, the source holds several entries; their conditions need not be identical. Equal entries are not always repeated. Structures can show the parent of a compound that is named as a salt.
Test: Content uniformity of the Example 2 lotion: product from ten individual pumps weighed and assayed for content of each drug
Type: physicochemical
Conditions: for average amount contained in a gram of lotion product: per gram of lotion; for assay values, % of label claim / USP Acceptance Value (AV): ten pump samples; for USP Acceptance Value (AV): limit of 15
Description: The content uniformity of the lotion was determined by assaying product from ten individual pumps spaced equally over the content of the bottle. After the pump was primed, product from ten pumps was collected by taking product from approximately every tenth pump. The product from each pump was weighed and assayed for content of each drug.

[1] = Example 2 lotion, average ± standard deviation of ten pump samples
[2] = Example 2 lotion, average ± standard deviation of ten pump samples, label claim 20 mg/g
[3] = Example 2 lotion, individual pump samples No. 1-10, label claim 20 mg/g (2.0%), dihydrochloride
[4] = Example 2 lotion, individual pump samples No. 1-10, label claim 20 mg/g (2.0%)

Row | Molecule | average amount contained in lotion product, % w/w (Example 2 lotion) | Levocitirizine dihydrochloride Wt. (mg/g), Average [1] | Levocitirizine dihydrochloride % Label Claim, Average [2] | Levocitirizine dihydrochloride % Label Claim [3] | Levocitirizine dihydrochloride Wt. [3] | average amount contained in a gram of lotion product (Example 2 lotion) | assay values, % of label claim (Example 2 lotion) | USP Acceptance Value (AV) (Example 2 lotion) | Mupirocin Wt. (mg/g), Average [1] | Mupirocin % Label Claim, Average [2] | Mupirocin % Label Claim [4] | Mupirocin Wt. [4] | Cyanocobalamin Wt. (Example 2 lotion at maximum strength, individual pump samples No. 1-10, label claim 0.7 mg/g (0.07%)) | Cyanocobalamin Wt. (mg/g), Average [1] | Cyanocobalamin % Label Claim, Average (Example 2 lotion, average ± standard deviation of ten pump samples, label claim 0.7 mg/g) | Cyanocobalamin % Label Claim (Example 2 lotion, individual pump samples No. 1-10, label claim 0.7 mg/g (0.07%))
1 | O=C(O)COCCN1CCN([C@H](c2ccccc2)c2ccc(Cl)cc2)CC1 [Levocitirizine dihydrochloride, levocetirizine dihydrochloride] | 1.97 % w/w | 19.76 ± 0.55 mg/g | 98.79 ± 2.77% | 97.15% and 96.00% and 102.10% and 103.90% and 99.90% and 101.10% and 96.80% and 95.80% and 96.75% and 97.75% | 19.43 mg/g and 19.32 mg/g and 20.42 mg/g and 20.78 mg/g and 19.98 mg/g and 20.22 mg/g and 19.36 mg/g and 19.16 mg/g and 19.35 mg/g and 19.55 mg/g | 19.76 mg | 90-110% | 6.66 |  |  |  |  |  |  |  | 
2 | C/C(=C\C(=O)OCCCCCCCCC(=O)O)C[C@@H]1OC[C@H](C[C@@H]2O[C@H]2[C@@H](C)[C@H](C)O)[C@@H](O)[C@H]1O [Mupirocin, mupirocin] | 1.93 % w/w |  |  |  |  | 19.32 mg | 90-110% | 6.44 | 19.32 ± 0.38 mg/g | 96.62 ± 1.90% | 99.60% and 96.00% (2×) and 96.10% and 95.85% and 98.55% and 95.70% and 92.90% and 98.45% and 97.00% | 19.92 mg/g and 19.20 mg/g (2×) and 19.22 mg/g and 19.17 mg/g and 19.71 mg/g and 19.14 mg/g and 18.58 mg/g and 19.69 mg/g and 19.40 mg/g |  |  |  | 
3 | cyanocobalamin | 0.07 % w/w |  |  |  |  | 0.697 mg | 90-110% | 4.45 |  |  |  |  | 0.723 mg/g and 0.711 mg/g and 0.694 mg/g and 0.696 mg/g (2×) and 0.682 mg/g (2×) and 0.701 mg/g and 0.684 mg/g and 0.699 mg/g | 0.697 ± 0.013 mg/g | 99.54 ± 1.86% | 103.29% and 101.57% and 99.14% and 99.43% (2×) and 97.43% (2×) and 100.14% and 97.71% and 99.86%

Reference: US20160008777A1, “PHARMACEUTICAL COMPOUNDING KIT” (Novotec Consulting Inc., priority 2014, published 2016)
